target: MAGE-A11:PCF11 (Homo sapiens (Human), UniProt P43364); test: TR-FRET single point screening at 15 μM; type: binding; set-up: unit not given here; conditions: single point TR-FRET screening at 15 μM against MAGE-A11:PCF11
Procedure, shortened: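 Single-point screen at 15 μM (0.25% DMSO) measuring disruption of GST-MAGEA11 (5 nM) binding to FAM-PCF11_4 peptide (200 nM) detected by Tb-anti-GST (5 nM). Buffer 50 mM Tris pH 7.5, 20 mM MgCl2, 0.1 mg/ml BSA, 1 mM DTT; 90 min at ~25 °C; 520/490 nm ratio converted to % inhibition versus controls.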

Chain of MAGE-A11:PCF11 (P43364 218-429): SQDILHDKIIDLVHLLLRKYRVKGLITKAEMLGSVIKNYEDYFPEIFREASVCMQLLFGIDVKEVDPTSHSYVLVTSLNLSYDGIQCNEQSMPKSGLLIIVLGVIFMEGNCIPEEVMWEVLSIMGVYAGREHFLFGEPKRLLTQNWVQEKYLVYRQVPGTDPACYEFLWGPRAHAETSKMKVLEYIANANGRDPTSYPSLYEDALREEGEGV

Going from `COc1ccccc1CN(CCCCNc1ccnc2cc(Cl)ccc12)Cc1ccccc1` [SJ000522726] to `Oc1ccccc1CN(CCCCNc1ccnc2cc(Cl)ccc12)Cc1ccccc1` [SJ000312697], the TR-FRET signal rises from 19.4 to 24.83.

Compared with `COc1ccc2nc3cc(Cl)ccc3c(NCCCNCc3ccco3)c2c1` [SJ000523032], `COc1ccc2nc3cc(Cl)ccc3c(NCCCNCc3ccc(C)s3)c2c1` [SJ000523029] is lower in TR-FRET signal: −165.3 for the first, −304.8 for the second.

First: CCN1CCN(c2c(S(=O)(=O)c3ccc(C)cc3)cnc3ccc(Cl)cc23)CC1 [SJ000083966]
Second: CCOc1ccc2ncc(S(=O)(=O)c3ccccc3)c(N3CCN(CC)CC3)c2c1 [SJ000083959]
The TR-FRET signal of the first is lower: −4.358 for the first, 4.534 for the second.

First: CCc1ccc(S(=O)(=O)c2cnc3ccccc3c2N2CCN(Cc3ccccc3)CC2)cc1 [SJ000117086]
Second: CCc1ccc(S(=O)(=O)c2cnc3ccccc3c2N2CCN(c3ccccc3F)CC2)cc1 [SJ000117079]
The TR-FRET signal of the first is higher: −55.26 for the first, −56.58 for the second.

First: COc1ccc2nc3cc(Cl)ccc3c(NCCCNCC3CC3)c2c1 [SJ000361087]
Second: COc1ccc2nc3cc(Cl)ccc3c(NCCCNCc3ccccc3C(F)(F)F)c2c1 [SJ000361095]
The TR-FRET signal of the first is lower: −502.4 for the first, −169.5 for the second.

First: COc1ccc(N2CCN(c3c(S(=O)(=O)c4ccc(C)c(C)c4)cnc4ccc(F)cc34)CC2)cc1 [SJ000117073]
Second: CCc1ccc(S(=O)(=O)c2cnc3ccccc3c2N2CCN(c3ccc(OC)cc3)CC2)cc1 [SJ000117074]
The TR-FRET signal of the first is lower: −13.26 for the first, −11.2 for the second.

Going from `O=C(O)c1ccccc1CN1CCC(Nc2ccnc3cc(Cl)ccc23)CC1` [SJ000523098] to `COc1ccc(F)c(CN(CCCCNc2ccnc3cc(Cl)ccc23)Cc2ccccc2)c1` [SJ000520441], the TR-FRET signal rises from −2.194 to 14.55.

Going from `CCN(CC)CC(=O)Nc1c2c(nc3ccccc13)N(C)CC2` [SJ000331537] to `CN(C)CCNc1c2c(nc3ccccc13)CCC2` [SJ000013622], the TR-FRET signal falls from 11.78 to 3.285.

Going from `CCCN(CCCNc1c2ccc(Cl)cc2nc2ccc(OC)cc12)CCCc1ccccc1` [SJ000520958] to `COc1ccc2nc3cc(Cl)ccc3c(NCCCNCc3cc(OC(F)(F)F)ccc3OC)c2c1` [SJ000521001], the TR-FRET signal rises from −267.2 to −231.8.

Going from `CN1CCN(c2c(S(=O)(=O)c3ccccc3)cnc3ccc(F)cc23)CC1` [SJ000083949] to `CCOc1ccc2ncc(S(=O)(=O)c3ccccc3)c(N3CCN(c4ccc(F)cc4)CC3)c2c1` [SJ000083979], the TR-FRET signal falls from −11.5 to −181.3.

Compared with `CCOc1ccc2ncc(S(=O)(=O)c3ccc(C)c(C)c3)c(N3CCN(C)CC3)c2c1` [SJ000247354], `CCc1ccc(S(=O)(=O)c2cnc3ccccc3c2N2CCN(c3ccccc3OC)CC2)cc1` [SJ000117069] is lower in TR-FRET signal: −14.05 for the first, −47.44 for the second.

same assay, conditions: single point TR-FRET screening of quinoline compounds against MAGE-A11:PCF11; 15 μM

Going from `CCCN(CCCNc1ccnc2cc(C(F)(F)F)ccc12)Cc1cccc(C)c1` [SJ000523076] to `CCCN(CCCNc1ccnc2cc(C(F)(F)F)ccc12)Cc1cccc2c1OCO2` [SJ000520472], the TR-FRET signal falls from 20.17 to 14.62.

Going from `CC(CCNCCCNc1ccnc2cc(Cl)ccc12)c1ccccc1` (centres unmarked) [SJ000523053] to `Clc1ccc2c(NCCCNCc3cc4ccccc4s3)ccnc2c1` [SJ000521032], the TR-FRET signal rises from 19.01 to 30.13.

Compared with `FC(F)(F)c1ccccc1CN(CCCNc1ccnc2cc(Cl)ccc12)Cc1ccccc1` [SJ000361168], `FC(F)(F)Oc1cccc(CN(CCCNc2ccnc3cc(Cl)ccc23)Cc2ccccc2)c1` [SJ000520464] is higher in TR-FRET signal: 2.509 for the first, 27.78 for the second.

First: CN(C)c1ccc(CN(CCCNc2ccnc3cc(Cl)ccc23)Cc2ccccc2)cc1 [SJ000522741]
Second: CCCN(CCCNc1ccnc2cc(Cl)ccc12)Cc1c[nH]c2ccc(F)cc12 [SJ000522992]
The TR-FRET signal of the first is lower: 14.76 for the first, 29.34 for the second.

First: CCC(CC)c1ccc2c(NCCCNCc3ccco3)ccnc2c1 [SJ000311266]
Second: CCCN(CCCNc1c2ccc(Cl)cc2nc2ccc(OC)cc12)Cc1cncc(Br)c1 [SJ000522975]
The TR-FRET signal of the first is higher: 24.56 for the first, −89.08 for the second.

From patent US20240246941A1, “SUBSTITUTED 4-(3-AMINOPROP-1-YL)AMINOQUINOLINE ANALOGS AS MODULATORS OF MELANOMA-ASSOCIATED ANTIGEN 11 UBIQUITIN LIGASE” (ST. JUDE CHILDREN'S RESEARCH HOSPITAL, INC., priority 2020, published 2024)
